How the values were obtained:
[1] = test system: BL21(DE3)ung-151 E. coli cells; test: Uracil content of E. coli genomial DNA by real-time PCR with Pfu WT-pol and Pfu V93Q-pol; format: cell-based, Escherichia coli; conditions: early log phase (OD600=0.5), mean ± SEM, untreated 537±37
Description: Escherichia coli genomial DNA. XL1-blue, BL21(DE3)ung-151 and CJ236 E. coli strains were propagated in LB media at 37° C. and were harvested at the early log phase (OD600=0.5) or at saturated phase (overnight culture). BL21(DE3)ung-151 cells grown in the presence of 30.7 or 61.3 μM 5-fluoro-2′-deoxyuridine (5FdUR) (Sigma-Aldrich) were harvested at the early log phase. Genomial DNA was purified by MasterPure DNA Purification Kit (Epicentre) following the instructions of the manufacturer. The DNA was digested by NdeI restriction enzyme (New England Biolabs) and was separated on 1% agarose gel. […]
(§1) Synthetic and physiological samples purified from agarose gels were applied in series of either 2-fold or 10-fold dilution steps. […] Melting point of the products was measured after a final denaturation at 95° C. for 1 min by heating from 55° C. to 95° C. […] Non-template control was measured in all cases. […] Cq values were determined after the manual setting of threshold level in the early exponential phase of the PCR amplification. […] Efficiency was calculated from the following equation: E=10^(−1/M)−1, where M is the slope of the linear curve and E is the efficiency. […] At each measured CqWt value the shift between the linear curves of the reference and the putatively uracil containing samples was determined. […]

[2] = test system: ung−/− mouse embryonic fibroblast (MEF) cells; test: Uracil content of MEF genomial DNA by real-time PCR with Pfu WT-pol and Pfu V93Q-pol; format: cell-based; conditions: 100 μM 5FdUR, 4 days, mean ± SEM
Description: (§2) Mouse Embryonic Fibroblast (MEF) genomial DNA. Wild type and ung^(−/−) MEF cells (34) were a generous gift from Dr. Hilde Nilsen, University of Oslo. MEF cells were cultured in DMEM+F12 HAM Mix (Sigma) supplemented with 10% Fetal Bovine Serum (Gibco), 1% Penicillin+Streptomycin (Gibco), 0.5 mM Sodium Pyruvate (Gibco), 1% 100× Non-Essential Amino Acids (Gibco). To obtain confluent cells 10^6 cells/T-75 flask were seeded. […] Genomial DNA was purified by MasterPure DNA Purification Kit (Epicentre). DNA was digested by EcoRI restriction enzyme (New England Biolabs) and separated on 1% agarose gel. […]
as §1

[3] = test system: wild-type mouse embryonic fibroblast (MEF) cells; test: as above; format: cell-based; conditions: 100 μM 5FdUR, 4 days, mean ± SEM, practically undetectable
Description: as §2, §1

[4] = test system: ung−/− MEF cells; test: Viability assay of MEF cells (AlamarBlue); format: cell-based, mouse; conditions: 0-1000 nM 5FdUR, 4 days, AlamarBlue fluorescence normalized to untreated
Description: (§3) Wild type and ung^(−/−) MEF cells were seeded onto 96-well plates in DMEM+F12 HAM Mix (Sigma) supplemented with 10% Fetal Bovine Serum (Gibco), 1% Penicillin+Streptomycin (Gibco), 0.5 mM Sodium Pyruvate (Gibco), 1% 100× Non-Essential Amino Acids (Gibco). 2000 cells were seeded in a well containing 100 μl medium. After 4 days 10 μl AlamarBlue (Biosource) was added, incubated for 3 hours at 37° C. and fluorescence was measured by Victor2 140 Multilabel counter at 485 nm excitation and 530 nm emission. Samples in triplicates were treated with different concentration of 5FdUR (0, 1, 10, 20, 50, 100, 250, 500, 1000 nM) and viability was assessed. Measurements were repeated three-times. Fluorescence intensity values measured from the wells was normalized to the intensity detected in samples grown in lack of 5FdUR.

[5] = test system: wild type MEF cells; test: Viability assay of MEF cells (AlamarBlue); format: cell-based, mouse; conditions: 0-1000 nM 5FdUR, 4 days, AlamarBlue fluorescence normalized to untreated
Description: as §3

With `O=c1[nH]c(=O)n([C@H]2C[C@H](O)[C@@H](CO)O2)cc1F` [5FdUR, 5-fluoro-2′-deoxyuridine] the “uracil content of genomial DNA” value ([1]; 30.7 μM 5FdUR) was 653±55 deoxyuridine/million dNMP, the “uracil content of genomial DNA” value ([1]; 61.3 μM 5FdUR) was 770±54 deoxyuridine/million dNMP and the “uracil content of genomial DNA” value [2] was 341±87 deoxyuridine/million dNMP. For the same compound, the “uracil content of genomial DNA” value [3] was 40±38 deoxyuridine/million dNMP, the viability [4] was “significant decrease in viability” and the viability [5] was “significant decrease in viability”.

From US20130071848A1 (priority 2011, published 2013)
